Experimental data from patent US6316423A, “Method of treating ischemic, hypoxic and anoxic brain damage” (priority 1999, dated 2001).

Legend:
Type in all cases: in vivo, gerbil
[1] = Cardiovascular effects and body temperature of ADAC in nonischemic (normoxic) gerbils; conditions: for Blood pressure / Cardiac rate: 100 μg/kg ADAC, ± SEM
Source text: Blood pressure was monitored using a Harvard Apparatus (South Natick, Mass.) rat tail blood pressure monitor (von Lubitz et al., 1994 supra), while a Silogic EC-60 cardiac and respiratory monitor (Stewartstown, Pa.) was used to measure cardiac rate. EEG clip electrodes were attached to the unshaven loose skin of the armpits and to both thighs saturated with EEG gel.

[2] = tested on: neurons of hippocampal CA1 region; assay: Neuronal survival 14 days after 10 minute ischemia, postischemic ADAC; conditions: control 25±3%
Method: At the end of the survival monitoring period (14 days), control and drug treated survivors were heavily anesthetized with Nembutal (60 mg/kg, intraperitoneally), and perfused with phosphate buffered (pH 7.4) 3.5% formaldehyde as described previously (Lin et al., Neurosci., 2, 289 (1990). The sections were stained with the method of Nissl, and the extent of the neuronal loss in the hippocampal region was investigated according to a standard procedure as disclosed in the art (von Lubitz et al., (1992) supra; 1994)supra.

[3] = tested on: microtubule associated protein 2 (MAP-2); assay: MAP-2 preservation in CA1 after 10 minute ischemia, postischemic ADAC; conditions: 100 μg/kg at 2, 6 or 12 h postischemia
Source text: Animals were allowed to survive either 2 or 7 days. They were then perfused with a freshly made 3.5 solution of paraformaldehyde in phosphate buffered saline (pH 7.4). After removal, brains were cut at 40 μm, and the sections were stained immunohistochemically with a monoclonal MAP-2 antibody (Sigma) diluted 1:500-1000. Standard peroxidase anti-peroxidase procedure of ABC complex with Vector kit (Hsu et al., 1981) intensified with heavy metal (Adams, 1981) was used. For immunofluorescent studies, the sections were incubated at 4° C. with the primary antibody overnight. Following three 5-10 minute washes, the sections were exposed to the secondary antibodies, i.e., fluorescein isothiocyanate, rhodamine isothiocyanate, and Texas Red conjugated goat anti-mouse IgG. The secondary antibodies were diluted at 1:20-100 in 0.1M phosphate buffer. Qualitative morphological and immunostaining characteristics of the sections were studied using an epifluorescent microscope (Nikon Labophot) equipped with filters (Nikon B2 and Nikon G1B) appropriate for the detection of the secondary antibodies.
Quantitative analysis of MAP-2 presence in the dendritic fields of CA1 was made using a computer image analysis system (Biographics Inc., Winston-Salem, N.C.).

[4] = tested on: gerbils exposed to 10 minutes of ischemia; assay: Survival rate following 10 minutes of ischemia, postischemic ADAC
Method: In the three remaining treatment groups (i.e., 3, 6, and 12 hours) numerical improvement was apparent, but statistical significance of (P<0.05) was lost probably owing to the sample sizes. […] To prevent selection of overly robust animals into these groups, the data were not normalized to account for pre-treatment mortalities.

[5] = tested on: gerbils exposed to 10 minutes of brain ischemia; assay: Dose-response of preischemic ADAC on survival after 10 minutes of ischemia; conditions: 15 min preischemia, control 40%
Source text: This higher selectivity results in lower quantities of drug administration required for maximum neuroprotection. Lower administered quantities in turn, result in attenuation or elimination of side-effects.

[6] = tested on: gerbils exposed to 10 minutes of brain ischemia; assay: Chronic ADAC treatment followed by 10 minutes of ischemia; conditions: 0.025, 0.050 or 0.075 mg for 60 days, one day rest
Method: The gerbils were then subjected to 10 minutes of brain ischemia and allowed to recover.

[7] = 0.1 mg/kg ADAC 15 min post ischemia
[8] = 0.1 mg/kg ADAC 30 min post ischemia
[9] = 0.1 mg/kg ADAC 2 hour post ischemia
[10] = 0.1 mg/kg ADAC 3 hour post ischemia
[11] = 0.1 mg/kg ADAC 6 hour post ischemia
[12] = 0.1 mg/kg ADAC 12 hour post ischemia

With NCCNC(=O)Cc1ccc(NC(=O)Cc2ccc(Nc3ncnc4c3ncn4[C@@H]3O[C@H](CO)[C@@H](O)[C@H]3O)cc2)cc1 [ADAC] the Blood pressure ([1]; 5 min post injection) was 83 ± 1 mm Hg, the Cardiac rate ([1]; 5 min post injection) was 385 ± 6 beats/min and the Blood pressure ([1]; 15 min post injection) was 81 ± 1 mm Hg. It also gave a Cardiac rate ([1]; 15 min post injection) of 382 ± 7 beats/min, a Blood pressure ([1]; 30 min post injection) of 82 ± 2 mm Hg and a Cardiac rate ([1]; 30 min post injection) of 383 ± 8 beats/min. The Blood pressure ([1]; 60 min post injection) was 80 ± 2 mm Hg, the Cardiac rate ([1]; 60 min post injection) was 383 ± 6 beats/min and the “changes of body temperature” value ([1]; 100 μg/kg, nonischemic gerbils) was “did not cause any significant changes”. For the same compound, the “changes of cardiac rate” value ([1]; 100 μg/kg, nonischemic gerbils) was “did not cause any significant changes”, the “changes of mean arterial blood pressure” value ([1]; 100 μg/kg, nonischemic gerbils) was “did not cause any significant changes” and the “bradycardia, hypotension, or decreased cerebral (cortical) blood flow” value ([1]; 0.1 mg/kg intraperitoneal, normoxic gerbils, within 120 minutes) was “not accompanied by a statistically significant bradycardia, hypotension, or decreased cerebral (cortical) blood flow”. For the same compound, the “cardiovascular effects at higher concentrations” value ([1]; 0.3 mg/kg and beyond, within 30 minutes of administration) was “manifests cardiovascular effects within 30 minutes of administration of 0.3 mg/kg and beyond”, the CA1 neuronal preservation ([2]; ADAC at 0.5, 2 or 3 hours postischemia) was ~ 75% and the CA1 neurons surviving ([2]; ADAC at 15 minutes, 6 or 12 hours postischemia) was “approximately 60%”. The “CA1 neurons still intact” value ([2]; ADAC at 1 hour postischemia) was 88±4%, the “loss of MAP-2 density in CA1” value ([3]; 2 days after ischemia, control 50% loss) was “no loss” and the “decrease of MAP-2 density in CA1” value ([3]; 7 days after occlusion) was “approximately 15%”. For the same compound, the “Survival Rate 24 h postischemia” value [4, 7] was 100%, the “Survival Rate 14 days postischemia” value [4, 7] was 70% and the “Survival Rate 24 h postischemia” value [4, 8] was 100%. The “Survival Rate 14 days postischemia” value [4, 8] was 90%, the “Survival Rate 24 h postischemia” value ([4]; 0.1 mg/kg ADAC 1 hour post ischemia) was 80% and the “Survival Rate 24 h postischemia” value [4, 9] was 80%. For the same compound, the “Survival Rate 14 days postischemia” value [4, 9] was 80%, the “Survival Rate 24 h postischemia” value [4, 10] was 60% and the “Survival Rate 14 days postischemia” value [4, 10] was 50%. For the same compound, the “Survival Rate 24 h postischemia” value [4, 11] was 50%, the “Survival Rate 14 days postischemia” value [4, 11] was 50% and the “Survival Rate 24 h postischemia” value [4, 12] was 60%. The “Survival Rate 14 days postischemia” value [4, 12] was 50%, the survival rate ([5]; 0.025 mg/kg) was 30% and the survival rate ([5]; 0.050 mg/kg) was 60%. For the same compound, the “survival rate (plateau)” value ([5]; 75, 100, or 200 mg/kg (so in the source)) was 80%, the “survival rate after chronic treatment followed by ischemia” value ([6]; FIG. 7A) was “attenuated the effects of brain ischemia” and the “neuronal loss after chronic treatment followed by ischemia” value ([6]; FIG. 7B) was “attenuated the effects of brain ischemia”.
